Test results taken from US12227510B2, “Crystal form of acid addition salt of furopyrimidine compound” (HANMI PHARM. CO., LTD., priority 2019, dated 2025).
Values after ≈ are worked out from the molar mass of the structure shown. Where two headings read alike, the source gives them in different places.

Assays:
[1] = amorphous compound of Formula 1 as prepared in the reference documents; cited from earlier work
[2] = type: physicochemical; conditions: for pH of solution: solution of the water solubility test, 20 mg/mL in water
Protocol: (§1) HPLC analysis was performed for analyzing purity and contents such as a stability test, etc., using an Agilent 1100/1200 series HPLC Systems (Agilent, USA) analyzer, and the conditions used for HPLC were as follows. • Purity and Content Analysis Conditions: Furopyrimidine Compound of Formula 1 • Column: Hydrosphere C18 (YMC), 5 μm (150 mm×4.6 mm) • Column temperature: 30° C. • Detector: UV spectrophotometer • Detection wavelength: 254 nm • Flow rate: 1.0 mL/min • Time of analysis: 35 min • Eluent: NaClO4—NaH2PO4— phosphate buffer solution (pH 2.5±0.1)/CH3CN=65/35(v/v %) 5. Ion Chromatography (IC)
To measure water solubility, each sample of the acid addition salts of the compound of Formula 1 prepared in Examples 1 to 6 was prepared in deionized water under the following conditions, and then each solution was analyzed by HPLC according to content measurement conditions of the compound of Formula 1. The dissolved amounts (LOD: more than 0.001 mg/mL) based on the compound of Formula 1 were measured, and then the values were converted.
In detail, each 100 mg of various forms was added to 5 mL of water, and mixed using a Voltamixer at 20° C. to 25° C., and a filtrate filtered using GH Polypro membrane Acrodisc, PALL (pore size of 0.2 μm) was diluted with a dilution solvent for HPLC.

[3] = Stability of the crystalline form under storage conditions; type: physicochemical; conditions: for stability under long-term storage conditions: temperature of 25° C. and relative humidity of 60%; for stability under accelerated conditions: temperature of 40° C. and relative humidity of 75%
Protocol: as §1

[4] = Dynamic vapor sorption (DVS) hygroscopicity; type: physicochemical
Protocol: DVS analysis was performed in a DVS advantage (Surface measurement system, United Kingdom) analyzer at 25° C. with a relative humidity of 0% to 90%. 10 mg of a sample was placed into a wire-mesh vapor sorption balance pan, and then attached to a DVS-advantage dynamic vapor sorption balance via surface measurement systems. Until a stable weight was achieved (99.5% completion of steps), the sample was applied to a ramping profile with a relative humidity (RH) of 10% to 90% with a 10% increase of the sample while maintaining the sample in each step. Upon completion of the sorption cycle, the sample was dried using the same process while maintaining a relative humidity of […]. The changes in the sample weight during the adsorption/desorption cycle (repeated 3 times) were recorded, and the hygroscopicity of the sample was measured.

[5] = 25° C., region with a relative humidity of 10% to 90%

Solubility [2] | stability under long-term storage conditions [3] | stability under accelerated conditions [3] | water absorption in DVS [4, 5] | SMILES | also measured
0.001 mg/mL | – | – | – | C=CC(=O)Nc1cccc(Oc2nc(Nc3ccc(N4CCN(C)CC4)cc3)nc3ccoc23)c1 [Formula 1 (Free base), N-(3-(2-(4-(4-methylpiperazin-1-yl)phenylamino)furo[3,2-d]pyrimidin-4-yloxy)phenyl)acrylamide] | solubility in water [1]: less than 0.001 mg/mL; pH of solution [2]: 7.2~7.3
0.9~1.4 mg/mL | sufficiently stable | sufficiently stable | – | C=CC(=O)Nc1cccc(Oc2nc(Nc3ccc(N4CCN(C)CC4)cc3)nc3ccoc23)c1 [Example 1, N-(3-(2-(4-(4-methylpiperazin-1-yl)phenylamino)furo[3,2-d]pyrimidin-4-yloxy)phenyl)acrylamide] | stability under harsh conditions ([3]; printed: temperature of 40° C. and relative humidity of 75%): sufficiently stable; water absorption in DVS ([4]; region with a relative humidity of 0% to 20%): showed water absorption; water absorption in DVS ([4]; region with a relative humidity of 30% or more): very low water absorption; solubility compared in words [2]: higher solubility than the crystalline form of the monohydrochloride; pH of solution ([2]; listed as 2HCl•3H2O): 2.3~2.4
0.93 mg/mL (≈ 1980 µM) | sufficiently stable | sufficiently stable | about 1% | C=CC(=O)Nc1cccc(Oc2nc(Nc3ccc(N4CCN(C)CC4)cc3)nc3ccoc23)c1 [Example 5, N-(3-(2-(4-(4-methylpiperazin-1-yl)phenylamino)furo[3,2-d]pyrimidin-4-yloxy)phenyl)acrylamide] | pH of solution ([2]; listed as 1MsOH•1H2O): 6.1
9.59 mg/mL (≈ 20400 µM) | sufficiently stable | sufficiently stable | about 1% | C=CC(=O)Nc1cccc(Oc2nc(Nc3ccc(N4CCN(C)CC4)cc3)nc3ccoc23)c1 [Example 6, N-(3-(2-(4-(4-methylpiperazin-1-yl)phenylamino)furo[3,2-d]pyrimidin-4-yloxy)phenyl)acrylamide] | solubility compared in words [2]: remarkably high solubility; pH of solution ([2]; listed as 1EsOH anhydrous): 6.3
1.27 mg/mL (≈ 2700 µM) | sufficiently stable | sufficiently stable | about 1% | C=CC(=O)Nc1cccc(Oc2nc(Nc3ccc(N4CCN(C)CC4)cc3)nc3ccoc23)c1 [Example 3, N-(3-(2-(4-(4-methylpiperazin-1-yl)phenylamino)furo[3,2-d]pyrimidin-4-yloxy)phenyl)acrylamide] | pH of solution ([2]; listed as 1HCl•anhydrous): 5.9~6.0
0.3~0.7 mg/mL | sufficiently stable | sufficiently stable | about 0.8% | C=CC(=O)Nc1cccc(Oc2nc(Nc3ccc(N4CCN(C)CC4)cc3)nc3ccoc23)c1 [Example 2, N-(3-(2-(4-(4-methylpiperazin-1-yl)phenylamino)furo[3,2-d]pyrimidin-4-yloxy)phenyl)acrylamide] | pH of solution ([2]; listed as 1HCl•2H2O): 5.8~5.9
1.13 mg/mL (≈ 2400 µM) | sufficiently stable | sufficiently stable | about 2% | C=CC(=O)Nc1cccc(Oc2nc(Nc3ccc(N4CCN(C)CC4)cc3)nc3ccoc23)c1 [Example 4, N-(3-(2-(4-(4-methylpiperazin-1-yl)phenylamino)furo[3,2-d]pyrimidin-4-yloxy)phenyl)acrylamide] | pH of solution ([2]; listed as 1MsOH•anhydrous): 6.3
